Source: PubChem BioAssay AID1919016 (Molecular Pharmacology Branch, DTP, NCI, 2023)

Tested on: NCI-H196 complex spheroid growth, percent test/control
Experiment: Anticancer human tumor NCI-H196 cell line growth inhibition [AhR];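 note: seven days of drug exposure starting three days after plating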;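 for viability, T/C: 100% = DMSO vehicle control wells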
Conditions: for IC50: curve of first compound; for viability, T/C: stronger effect = lower value
How it was run: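 Spheroids combined tumor cells with HUVEC endothelial cells and human MSCs as stroma. AhR antagonists were paired with standard or investigational drugs, each dosed in half-log steps down from near clinical Cmax, or from 10 microM where Cmax was unknown.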

O=C(C=Cn1cnc(-c2cc(C(F)(F)F)cc(C(F)(F)F)c2)n1)NNc1cnccn1 + CC(CO)NC(=O)c1cc(-c2ccc(Cl)cc2)nn(-c2cnn(C)c2)c1=O
IC50 (second compound 0.1 µM): 45.1 nM | IC50 (second compound 0.316 µM): 37.4 nM | IC50 (second compound 1 µM): 33.3 nM | IC50 (second compound 3.16 µM): 38.4 nM | IC50 (second compound 10 µM): 45.8 nM | viability, T/C (second compound 0.1 µM, first compound 0.00949 µM): 71.2% | viability, T/C (second compound 0.1 µM, first compound 0.03 µM): 71.1% | viability, T/C (second compound 0.1 µM, first compound 0.0949 µM): 11.6% | viability, T/C (second compound 0.1 µM, first compound 0.3 µM): 11.1% | viability, T/C (second compound 0.1 µM, first compound 0.949 µM): 7.23% | viability, T/C (second compound 0.1 µM, first compound 3 µM): 6.89% | viability, T/C (second compound 0.316 µM, first compound 0.00949 µM): 74.7% | viability, T/C (second compound 0.316 µM, first compound 0.03 µM): 58.2% | viability, T/C (second compound 0.316 µM, first compound 0.0949 µM): 14.9% | viability, T/C (second compound 0.316 µM, first compound 0.3 µM): 12.3% | viability, T/C (second compound 0.316 µM, first compound 0.949 µM): 8.19% | viability, T/C (second compound 0.316 µM, first compound 3 µM): 7.69% | viability, T/C (second compound 1 µM, first compound 0.00949 µM): 73.2% | viability, T/C (second compound 1 µM, first compound 0.03 µM): 53.6% | viability, T/C (second compound 1 µM, first compound 0.0949 µM): 14.3% | viability, T/C (second compound 1 µM, first compound 0.3 µM): 7.96% | viability, T/C (second compound 1 µM, first compound 0.949 µM): 8.07% | viability, T/C (second compound 1 µM, first compound 3 µM): 6.9% | viability, T/C (second compound 3.16 µM, first compound 0.00949 µM): 75.9% | viability, T/C (second compound 3.16 µM, first compound 0.03 µM): 59.1% | viability, T/C (second compound 3.16 µM, first compound 0.0949 µM): 16.4% | viability, T/C (second compound 3.16 µM, first compound 0.3 µM): 7.92% | viability, T/C (second compound 3.16 µM, first compound 0.949 µM): 6.29% | viability, T/C (second compound 3.16 µM, first compound 3 µM): 7.99% | viability, T/C (second compound 10 µM, first compound 0.00949 µM): 80.6% | viability, T/C (second compound 10 µM, first compound 0.03 µM): 69.1% | viability, T/C (second compound 10 µM, first compound 0.0949 µM): 17.2% | viability, T/C (second compound 10 µM, first compound 0.3 µM): 11.2% | viability, T/C (second compound 10 µM, first compound 0.949 µM): 10.8% | viability, T/C (second compound 10 µM, first compound 3 µM): 7.46%
